Measured values from publication PMC11643690, “Chelating Properties of N6O-Donors Toward Cu(II) Ions: Speciation in Aqueous Environments and Catalytic Activity of the Dinuclear Complexes” (Molecules, 2024).
Entries after “also recorded” stand apart in the source; their conditions may differ.

Assay: UV–Vis titration of ligands with Cu(ClO4)2, binding constant by non-linear regression
Details: difference of stability constants
Experimental: To determine the overall equilibrium constant β1,2 (Kbind), a solution of the ligand was titrated with aliquots of 0.2 equivalents of Cu(II). Monitoring the formation of the complex via UV–Vis spectroscopy, the absorbance around 260 nm, 300 nm, 450 nm, and 700 nm increased during the titration (Figure 3a) in all cases. The latter two bands are visible only at high concentrations (>0.1 mM). These changes are caused by the formation of the complex and the disappearance of the free ligand.
In Figure 3b, the linear increase in the absorbance change (ΔAbs) at 240 nm, upon an increase in Cu(II) amount, is evident, leading to a sharp plateau around 2 equivalents. […] The binding constants were determined by non-linear regression analysis of Equation (2), (2) ∆A/b=(K1∆A1Cu+ β1,2∆A2Cu^2)/1+K1Cu+ β1,2Cu^2 which traces the correlation “ΔAbs/b vs. Cu(II) concentration,” according to K. Connors. In this equation, ΔA is the differences in absorbance at a certain wavelength, b is the optical path (1 cm), K1 is the constant for the formation of the complex 1:1, and β1,2 is the global formation constant (Kbind) for the complex 1:2. ΔA1 and ΔA2 are the differences in absorbance due to the formation of the 1:1 complex and the 1:2 complex, respectively. […]
UV-vis spectra of ligands and complexes were recorded in a quartz cuvette, with 1 cm of optical path. […]

In the case of Cc1cc(CN(Cc2ccccn2)Cc2ccccn2)c(O)c(CN(Cc2ccccn2)Cc2ccccn2)c1 [HL-CH3, 2,6-bis[(bis(2-pyridylmethyl)amino)methyl]-4-methylphenol], the “binding preference for copper ions over Mn2+, Fe2+, Zn2+” value is reported as “almost three orders of magnitude; also recorded: approximately three orders of magnitude higher”.
